Reference: patent US20240123080A1, “CYTOTOXIC COMPOUNDS AND CONJUGATES THEREOF” (Seagen Inc., priority 2022, published 2024)
*1 amine or outer side, *2 acyl side, *3 side chain or, on linkers, in order; H or OH if unused. Where a SMILES comes first, the peptide text is derived from it. [ ]: non-standard residue; d: D form. The star is where a group is joined. ξ: configuration not given here. Dolaproine = CO[C@@H]([C@@H]1CCCN1)[C@@H](C)C(=O)O; Hexanoyl(6-maleimido) = O=C1C=CC(=O)N1CCCCCC(=O)*; Propanoyl(3-maleimido) = O=C1C=CC(=O)N1CCC(=O)*; Dil = CC[C@H](C)[C@H](NC)[C@@H](CC(=O)O)OC; PABC = O=C(OCc1ccc(N[*:1])cc1)[*:2]; Tyrosinol = OC[C@H](Cc1ccc(O)cc1)N*; Val(3-OH) = CC(C)(O)[C@H](N)C(=O)O; Doe = c1ccc(C[C@H](N*)c2nccs2)cc1; X1 = C[C@@H](N*)[C@@H](O)c1ccccc1; Cit = NC(=O)NCCC[C@H](N)C(=O)O; Phe(ol) = N[C@H](CO)Cc1ccccc1; NHPhenethyl = c1ccc(CCN*)cc1; X3 = CN1C(=O)OC[C@@H]1C(=O)*; NMeV = CN[C@H](C(=O)O)C(C)C; X2 = CN(C)[C@@H](CO)C(=O)*; NMeS = CN[C@@H](CO)C(=O)O; ξαMeS = CC(N)(CO)C(=O)O

Experiments:
SKMEL28 = test: In vitro cytotoxicity of auristatin ADCs and free drugs (CellTiter-Glo, 96 h); format: cell-based; conditions: Homo sapiens, SK-MEL-28, 96 h, read-out: IC50, SKMEL28
Description: (§1) Cancer cells were counted and plated in 40 μL complete growth media in 384-well, white-walled tissue culture treated plates (Corning). Cell plates were incubated at 37° C. and with 5% CO2 overnight to allow the cells to equilibrate. Stock solutions containing ADCs or free drugs were serially diluted in RPMI-1640+20% fetal bovine serum (FBS). 10 μL of each concentration were then added to each cell plate in duplicate. Cells were then incubated at 37° C. and with 5% CO2 for 96 hours, upon which, the cell plates were removed from the incubator and allowed to cool to room temperature for 30 minutes prior to analysis. CellTiter-Glo® luminescent assay reagent (Promega Corporation, Madison, WI) was prepared according to Promega's protocol. 10 μL of CellTiter-Glo® were added to assay plates using a Formulatrix Tempest liquid handler (Formulatrix) and the plates were protected from light for 30 minutes at room temperature. The luminescence of the samples was measured using an EnVision Multimode plate reader (Perkin Elmer, Waltham, MA). Raw data were analyzed in Graphpad Prism (San Diego, CA) using a nonlinear, 4-parameter curve fit model [Y=Bottom+(Top-Bottom)/(1+10^((LogEC50−X)*HillSlope))]. Results are reported as IC50 values, which are defined as the concentration of ADC or free drug required to reduce cell viability to 50%.

CALU1 = test: as above; format: cell-based; conditions: Homo sapiens, Calu-1, 96 h, read-out: IC50, CALU1
Description: as §1

SKMEL5 = test: as above; format: cell-based; conditions: Homo sapiens, SK-MEL-5, 96 h, read-out: IC50, SKMEL5
Description: as §1

A2058 = test: as above; format: cell-based; conditions: Homo sapiens, A2058, 96 h, read-out: IC50, A2058
Description: as §1

[1] = tested on: DEL, Karpas299, and L540cy cell lines; test: Average cytotoxicity of DEL, Karpas299, and L540cy cell lines; format: cell-based; conditions: read-out: Avg IC50 Free drug
Description: (§2) The cytotoxicity of free drugs and drug conjugates were measured by a cell proliferation assay employing the protocol described in Promega Corp. Technical Bulletin TB288; and Mendoza et al., 2002, Cancer Res. 62:5485-5488), the methods of which are specifically incorporated by reference herein. Briefly, an aliquot of 40 μl of cell culture containing about 400 cells in medium is deposited in each well of a 384-well, opaque-walled plate. A 10 μL aliquot of free drug or drug conjugate is added to the experimental wells and incubated for 96 h and are then equilibrated to room temperature for approximately 30 minutes whereupon a volume of CellTiter-Glo™ reagent equal to the volume of cell culture medium present in each well is added. The contents are mixed for 2 minutes on an orbital shaker to induce cell lysis and the plate is incubated at room temperature for 10 minutes to stabilize the luminescence signal for recordation.
Tolerability of an ADC comprising the compound of Example 8 of the present application was compared to tolerability of ADCs comprising the known compounds MMAE and MMAF. Without being bound by theory, the improvements in tolerability are believed to be related to reduced toxicities in the bone marrow and in the liver that are a result of the OH moieties on the compound of Example 8.

[2] = LogD, miniaturized 1-octanol/pH 7.4 buffer shake flask method, LC/MS/MS; format: physicochemical
Description: The LogD (distribution coefficient) of the compounds was measured using a miniaturized 1-octanol/pH 7.4 buffer shake flask method followed by LC/MS/MS analysis. Values were determined by measuring the compound partitioned in the organic and buffered layers.

DEL ALCL = test: In vitro cytotoxicity, cell proliferation assay (CellTiter-Glo, 96 h); format: cell-based; conditions: auristatin free drug
Description: as §2

L540cy HL = test: as above; format: cell-based; conditions: auristatin free drug
Description: as §2

Karpas299 NHL = test: as above; format: cell-based; conditions: Homo sapiens, KARPAS-299, auristatin free drug
Description: as §2

Sprague Dawley rats = test: In vivo rat safety study of non-binding (h00) ADCs, hematology and clinical chemistry; conditions: ADC of the Drug-Linker
Description: In vivo rat safety studies were done in naive female Sprague Dawley rats (Envigo). Studies had 3 animals/group/timepoint and included a vehicle control group (1×PBS pH 7.4). Animals were administered a single dose of 15 or 80 mg/kg of an h00 ADC (DAR=4) via intravenous injection. Blood was drawn at days 5 and day 8. Blood was sampled under isoflurane anesthesia via the jugular vein for periodic hematology analysis on the Sysmex XT-2000iV. At necropsy, blood was collected from the caudal vena cava for hematology and clinical chemistry panels. Clinical chemistry was analyzed on a Beckman Coulter AU680.

| Compound | IC50 (SKMEL28) | IC50 (CALU1) | IC50 (SKMEL5) | IC50 (A2058) | IC50 [1] | logD [2] | IC50 (DEL ALCL) | IC50 (L540cy HL) | IC50 (Karpas299 NHL) | Tolerated at 80 mg/kg in rats (Sprague Dawley rats) |
| --- | --- | --- | --- | --- | --- | --- | --- | --- | --- | --- |
| CC[C@H](C)[C@@H]([C@@H](CC(=O)N1CCC[C@H]1[C@H](OC)[C@@H](C)C(=O)N[C@H](CO)Cc1ccccc1)OC)N(C)C(=O)[C@@H](NC(=O)[C@H](CO)N(C)C)C(C)C [Ex. 8 (compound 1.1)] (X2-V[Dil][Dolaproine][Phe(ol)]) | 4 nM | 5 nM | 2 nM | 2 nM | – | – | – | – | – | – |
| CC[C@H](C)[C@@H]([C@@H](CC(=O)N1CCC[C@H]1[C@H](OC)[C@@H](C)C(=O)N[C@H](CO)Cc1ccccc1)OC)N(C)C(=O)[C@@H](NC(=O)[C@H](CO)N(C)C)C(C)C [Example 8] (X2-V[Dil][Dolaproine][Phe(ol)]) | – | – | – | – | 2.9 nM | 1.6 | 0.7 nM | 6.6 nM | 1.4 nM | – |
| CC[C@H](C)[C@@H]([C@@H](CC(=O)N1CCC[C@H]1[C@H](OC)[C@@H](C)C(=O)N[C@H](C)[C@@H](O)c1ccccc1)OC)N(C)C(=O)[C@@H](NC(=O)[C@@H](N)C(C)(C)O)C(C)C [Example 28] (H-[Val(3-OH)]V[Dil][Dolaproine]-X1) | – | – | – | – | – | 2 | 7.8 nM | 28 nM | 9.4 nM | – |
| CC[C@H](C)[C@@H]([C@@H](CC(=O)N1CCC[C@H]1[C@H](OC)[C@@H](C)C(=O)N[C@H](CO)Cc1ccccc1)OC)N(C)C(=O)[C@@H](NC(=O)[C@@H](N)C(C)(C)O)C(C)C [Example 29] (H-[Val(3-OH)]V[Dil][Dolaproine][Phe(ol)]) | – | – | – | – | – | 2 | 12.7 nM | 58 nM | 13.7 nM | – |
| CC[C@H](C)[C@@H]([C@@H](CC(=O)N1CCC[C@H]1[C@H](OC)[C@@H](C)C(=O)N[C@H](CO)Cc1ccc(O)cc1)OC)N(C)C(=O)[C@@H](NC(=O)[C@@H](N)C(C)(C)O)C(C)C [Example 30] (H-[Val(3-OH)]V[Dil][Dolaproine]-Tyrosinol) | – | – | – | – | – | 1.2 | 396 nM | > 1000 nM | 481 nM | – |
| CC[C@H](C)[C@@H]([C@@H](CC(=O)N1CCC[C@H]1[C@H](OC)[C@@H](C)C(=O)N[C@@H](Cc1ccccc1)c1nccs1)OC)N(C)C(=O)[C@@H](NC(=O)[C@@H](N)C(C)(C)O)C(C)C [Example 31] (H-[Val(3-OH)]V[Dil][Dolaproine]-Doe) | – | – | – | – | – | 3.4 | 2.1 nM | 4.7 nM | 1.7 nM | – |
| CC[C@H](C)[C@@H]([C@@H](CC(=O)N1CCC[C@H]1[C@H](OC)[C@@H](C)C(=O)N[C@H](C)[C@@H](O)c1ccccc1)OC)N(C)C(=O)[C@@H](NC(=O)C[C@@H](N)CO)C(C)C [Example 32] | – | – | – | – | – | 0.3 | 64 nM | 920 nM | 56 nM | – |
| CC[C@H](C)[C@@H]([C@@H](CC(=O)N1CCC[C@H]1[C@H](OC)[C@@H](C)C(=O)N[C@H](C)[C@@H](O)c1ccccc1)OC)N(C)C(=O)[C@@H](NC(=O)C(C)(N)CO)C(C)C (stereo partly shown) [Example 33] (H-[ξαMeS]V[Dil][Dolaproine]-X1) | – | – | – | – | – | 3.2 | 1.8 nM | 6.4 nM | 1.7 nM | – |
| CC[C@H](C)[C@@H]([C@@H](CC(=O)N1CCC[C@H]1[C@H](OC)[C@@H](C)C(=O)N[C@H](CO)Cc1ccccc1)OC)N(C)C(=O)[C@@H](NC(=O)[C@H]1COC(=O)N1C)C(C)C [Example 45] (X3-V[Dil][Dolaproine][Phe(ol)]) | – | – | – | – | – | 1.5 | 8.5 nM | 272 nM | 40.8 nM | – |
| CC[C@H](C)[C@@H]([C@@H](CC(=O)N1CCC[C@H]1[C@H](OC)[C@@H](C)C(=O)N[C@H](CO)Cc1ccccc1)OC)N(C)C(=O)[C@@H](NC(=O)[C@H](CO)N(C)C(=O)OCc1ccc(NC(=O)[C@H](CCCNC(N)=O)NC(=O)[C@@H](NC(=O)CCCCCN2C(=O)C=CC2=O)C(C)C)cc1)C(C)C [Example 61] ({Hexanoyl(6-maleimido)}-V[Cit][PABC][NMeS]V[Dil][Dolaproine][Phe(ol)]) | – | – | – | – | – | – | – | – | – | Yes |
| CC[C@H](C)[C@@H]([C@@H](CC(=O)N1CCC[C@H]1[C@H](OC)[C@@H](C)C(=O)NCCc1ccccc1)OC)N(C)C(=O)[C@@H](NC(=O)[C@H](CO)N(C)C(=O)OCc1ccc(NC(=O)[C@H](CCC(=O)O)NC(=O)[C@H](C)NC(=O)[C@@H](CC(C)C)NC(=O)CCN2C(=O)C=CC2=O)cc1)C(C)C [Example 78] ({Propanoyl(3-maleimido)}-[dL]AE[PABC][NMeS]V[Dil][Dolaproine]-NHPhenethyl) | – | – | – | – | – | – | – | – | – | Yes |
| CC[C@H](C)[C@@H]([C@@H](CC(=O)N1CCC[C@H]1[C@H](OC)[C@@H](C)C(=O)N[C@@H](Cc1ccccc1)c1nccs1)OC)N(C)C(=O)[C@@H](NC(=O)[C@H](CO)N(C)C(=O)OCc1ccc(NC(=O)[C@H](CCC(=O)O)NC(=O)[C@H](C)NC(=O)[C@@H](CC(C)C)NC(=O)CCN2C(=O)C=CC2=O)cc1)C(C)C [Example 79] ({Propanoyl(3-maleimido)}-[dL]AE[PABC][NMeS]V[Dil][Dolaproine]-Doe) | – | – | – | – | – | – | – | – | – | No |
| CC[C@H](C)[C@@H]([C@@H](CC(=O)N1CCC[C@H]1[C@H](OC)[C@@H](C)C(=O)N[C@@H](Cc1ccccc1)c1nccs1)OC)N(C)C(=O)[C@@H](NC(=O)[C@H](CO)N(C)C(=O)OCc1ccc(NC(=O)[C@H](CCC(=O)O)NC(=O)[C@H](C)NC(=O)[C@@H](CC(C)C)NC(=O)CCN2C(=O)C=CC2=O)cc1)[C@@H](C)CC [Example 80] ({Propanoyl(3-maleimido)}-[dL]AE[PABC][NMeS]I[Dil][Dolaproine]-Doe) | – | – | – | – | – | – | – | – | – | Yes |
| CC[C@H](C)[C@@H]([C@@H](CC(=O)N1CCC[C@H]1[C@H](OC)[C@@H](C)C(=O)N[C@H](C)[C@@H](O)c1ccccc1)OC)N(C)C(=O)[C@@H](NC(=O)[C@@H](NC)C(C)C)C(C)C [MMAE, monomethyl auristatin E, reference compound] (H-[NMeV]V[Dil][Dolaproine]-X1) | 0.4 nM | 0.6 nM | 0.2 nM | 0.3 nM | 0.2 nM | 1.9 | 0.05 nM | 0.1 nM | 0.1 nM | – |
| CC[C@H](C)[C@@H]([C@@H](CC(=O)N1CCC[C@H]1[C@H](OC)[C@@H](C)C(=O)N[C@@H](Cc1ccccc1)C(=O)O)OC)N(C)C(=O)[C@@H](NC(=O)[C@@H](NC)C(C)C)C(C)C [MMAF, monomethyl auristatin F, reference compound] (H-[NMeV]V[Dil][Dolaproine]F-OH) | – | – | – | – | 44 nM | 0.03 | 44 nM | 47 nM | 41 nM | – |
